# Where “and” joins values, the source holds several entries; their conditions need not be identical. Equal entries are not always repeated. Entries after “also recorded” stand apart in the source; their conditions may differ.
# What was measured:
# [1] = test system: HIV-1 reverse transcriptase Y188L (Y188L-RTV); assay: Phenotypic susceptibility assay, site directed mutant Y188L-RTV; type: cell-based; settings: >1 loss of susceptibility
# Experimental: (§1) Resistance tests were carried out with resistance test vectors using two host cell types. Resistance test vector viral particles were produced by a first host cell (the resistance test vector host cell) that was prepared by transfecting a packaging host cell with the resistance test vector and the packaging expression vector. The resistance test vector viral particles were then used to infect a second host cell (the target host cell) in which the expression of the indicator gene is measured.
# (§2) The resistance test vectors containing a functional luciferase gene cassette were constructed and host cells were transfected with the resistance test vector DNA. The resistant test vectors contained patient-derived reverse transcriptase and protease sequences that were either susceptible or resistant to the antiretroviral agents, such as nucleoside reverse transcriptase inhibitors, non-nucleoside reverse transcriptase inhibitors and protease inhibitors. The resistance test vector viral particles produced by transfecting the resistance test vector DNA into host cells, either in the presence or absence of protease inhibitors, were used to infect target host cells grown either in the absence of NRTI or NNRTI or in the presence of increasing concentrations of the drug. […] The IC50 values were determined by plotting percent drug inhibition vs. log10 drug concentration.
# (§3) Host cells were seeded in 10-cm-diameter dishes and were transfected several days after plating with resistance test vector plasmid DNA and the envelope expression vector. […] HIV capsid protein (p24) levels in the harvested cell culture media were determined by an EIA method as described by the manufacturer (SIAC; Frederick, Md.). […] The inhibitory effect of the drug was determined using the following equation: % luciferase inhibition=1-(RLUluc[drug]÷RLUluc)×100 where RLUluc [drug] is the relative light unit of luciferase activity in infected cells in the presence of drug and RLUluc is the Relative Light Unit of luciferase activity in infected cells in the absence of drug. […]
# [2] = test system: HIV-1 reverse transcriptase Y181C (Y181C-RTV); assay: Phenotypic susceptibility assay, site directed mutant Y181C-RTV; type: cell-based; settings: for resistance profile: Y181C site directed mutant, FIG. 5
# Experimental: as §1, §2, §3
# [3] = test system: HIV-1 reverse transcriptase V106A + Y181C + F227L (V106A-Y181C-F227L-RTV); assay: Phenotypic susceptibility assay, site directed mutant V106A-Y181C-F227L-RTV; type: cell-based; settings: >1 loss of susceptibility
# Experimental: as §1, §2, §3
# [4] = test system: HIV-1 reverse transcriptase F227L (F227L-RTV); assay: Phenotypic susceptibility assay, site directed mutant F227L-RTV; type: cell-based; settings: >1 loss, <1 increased susceptibility
# Experimental: as §1, §2, §3
# [5] = test system: HIV-1 reverse transcriptase V106A + Y181C (V106A-Y181C-RTV); assay: Phenotypic susceptibility assay, site directed mutant V106A-Y181C-RTV; type: cell-based; settings: >1 loss of susceptibility
# Experimental: as §1, §2, §3
# [6] = test system: HIV-1 reverse transcriptase E138A (E138A-RTV); assay: Phenotypic susceptibility assay, site directed mutant E138A-RTV; type: cell-based; settings: >1 loss of susceptibility
# Experimental: as §1, §2, §3
# [7] = test system: HIV-1 reverse transcriptase K103N (K103N-RTV); assay: Phenotypic susceptibility assay, site directed mutant K103N-RTV; type: cell-based; settings: for change in susceptibility / resistance: K103N mutation; for fold change in susceptibility compared to wild type control RTV: K103N-RTV, >1 loss of susceptibility
# Experimental: as §1
# (§4) The resistance test vectors containing a functional luciferase gene cassette were constructed and host cells were transfected with the resistance test vector DNA. The resistant test vectors contained patient-derived reverse transcriptase and protease sequences that were either susceptible or resistant to the antiretroviral agents, such as nucleoside reverse transcriptase inhibitors, non-nucleoside reverse transcriptase inhibitors and protease inhibitors. The resistance test vector viral particles produced by transfecting the resistance test vector DNA into host cells, either in the presence or absence of protease inhibitors, were used to infect target host cells grown either in the absence of NRTI or NNRTI or in the presence of increasing concentrations of the drug. The amount of luciferase activity produced in infected target host cells in the presence of drug was compared to the amount of luciferase produced in infected target host cells in the absence of drug. Drug resistance was measured as the amount of drug required to inhibit by 50% the luciferase activity detected in the absence of drug (inhibitory concentration 50%, IC50). The IC50 values were determined by plotting percent drug inhibition vs. log10 drug concentration.
# (§5) Host cells were seeded in 10-cm-diameter dishes and were transfected several days after plating with resistance test vector plasmid DNA and the envelope expression vector. Transfections were performed using a calcium-phosphate precipitation procedure. The cell culture media containing the DNA precipitate was replaced with fresh medium, from one to 24 hours, after transfection. Cell culture media containing resistance test vector viral particles was harvested one to four days after transfection and was passed through a […] filter before being stored at −80° C. HIV capsid protein (p24) levels in the harvested cell culture media were determined by an EIA method as described by the manufacturer (SIAC; Frederick, Md.). Before infection, target cells (293 and 293/T) were plated in cell culture media. Control infections were performed using cell culture media from mock transfections (no DNA) or transfections containing the resistance test vector plasmid DNA without the envelope expression plasmid. One to three or more days after infection the media was removed and cell lysis buffer (Promega) was added to each well. […] The inhibitory effect of the drug was determined using the following equation: % luciferase inhibition=1-(RLUluc[drug]÷RLUluc)×100 where RLUluc [drug] is the relative light unit of luciferase activity in infected cells in the presence of drug and RLUluc is the Relative Light Unit of luciferase activity in infected cells in the absence of drug. IC50 values were obtained from the sigmoidal curves that were generated from the data by plotting the percent inhibition of luciferase activity vs. the log10 drug concentration. […]
# [8] = test system: HIV-1 reverse transcriptase V106A + F227L (V106A-F227-RTV); assay: Phenotypic susceptibility assay, site directed mutant V106A-F227-RTV; type: cell-based; settings: >1 loss of susceptibility
# Experimental: as §1, §2, §3
# [9] = test system: HIV-1 reverse transcriptase A98G + G190S (A98G-G190S-RTV); assay: Phenotypic susceptibility assay, site directed mutant A98G-G190S-RTV; type: cell-based; settings: >1 loss, <1 increased susceptibility
# Experimental: as §1, §2, §3
# [10] = test system: HIV-1 reverse transcriptase P236L (P236L-RTV); assay: Phenotypic susceptibility assay, site directed mutant P236L-RTV; type: cell-based; settings: P236L alone versus wild type reference RTV
# Experimental: (§6) Transfections were performed using a calcium-phosphate precipitation procedure. […] Cell lysates were assayed for luciferase activity (FIG. 3). […] The drug inhibition curves are shown in (FIG. 3).
# Resistance test vectors were constructed containing the P236L mutation alone and in combination with other known drug resistance mutations (K103N, Y181C) that are known to modulate the susceptibility of HIV-1 to NNRTIs. […] The P236L mutation was also introduced into a RTV containing mutations at K103N, Y181C or both (K103N+Y181C).
# [11] = test system: HIV-1 reverse transcriptase V106A (V106A-RTV); assay: Phenotypic susceptibility assay, site directed mutant V106A-RTV; type: cell-based; settings: >1 loss of susceptibility
# Experimental: as §1, §2, §3
# [12] = test system: HIV-1 reverse transcriptase A98G (A98G-RTV); assay: Phenotypic susceptibility assay, site directed mutant A98G-RTV; type: cell-based; settings: >1 loss of susceptibility
# Experimental: as §1, §2, §3
# [13] = test system: HIV-1 reverse transcriptase G190S (G190S-RTV); assay: Phenotypic susceptibility assay, site directed mutant G190S-RTV; type: cell-based; settings: for change in susceptibility: G190S-RTV versus wild type reference RTV; for fold change in susceptibility compared to wild type control RTV: G190S-RTV, >1 loss, <1 increased susceptibility
# Experimental: as §1, §4, §5
# [14] = test system: HIV-1 reverse transcriptase K101E + G190S (K101E-G190S-RTV); assay: Phenotypic susceptibility assay, site directed mutant K101E-G190S-RTV; type: cell-based
# Experimental: as §1, §4
# Host cells were seeded in 10-cm-diameter dishes and were transfected several days after plating with resistance test vector plasmid DNA and the envelope expression vector. Transfections were performed using a calcium-phosphate precipitation procedure. The cell culture media containing the DNA precipitate was replaced with fresh medium, from one to 24 hours, after transfection. Cell culture media containing resistance test vector viral particles was harvested one to four days after transfection and was passed through a […] filter before being stored at −80° C. HIV capsid protein (p24) levels in the harvested cell culture media were determined by an EIA method as described by the manufacturer (SIAC; Frederick, Md.). Before infection, target cells (293 and 293/T) were plated in cell culture media. Control infections were performed using cell culture media from mock transfections (no DNA) or transfections containing the resistance test vector plasmid DNA without the envelope expression plasmid. One to three or more days after infection the media was removed and cell lysis buffer (Promega) was added to each well. […] The inhibitory effect of the drug was determined using the following equation: % luciferase inhibition=1-(RLUluc[drug]÷RLUluc)×100 where RLUluc [drug] is the relative light unit of luciferase activity in infected cells in the presence of drug and RLUluc is the Relative Light Unit of luciferase activity in infected cells in the absence of drug. IC50 values were obtained from the sigmoidal curves that were generated from the data by plotting the percent inhibition of luciferase activity vs. the log10 drug concentration.
# Mutations may be incorporated alone and/or in combination with other known drug resistance mutations that are thought to modulate the susceptibility of HIV to a certain drug or class of drugs. Mutations are introduced into the resistance test vector through any of the widely known methods for site-directed mutagenesis. In one embodiment of this invention the mega-primer PCR method for site-directed mutagenesis is used.
# [15] = test system: HIV-1 reverse transcriptase V108I (V108I-RTV); assay: Phenotypic susceptibility assay, site directed mutant V108I-RTV; type: cell-based; settings: >1 loss of susceptibility
# Experimental: as §1, §2, §3
# [16] = test system: HIV-1 reverse transcriptase G190A (G190A-RTV); assay: Phenotypic susceptibility assay, site directed mutant G190A-RTV; type: cell-based; settings: for change in susceptibility: G190A-RTV versus wild type reference RTV
# Experimental: as §1, §4
# as §3, with “vector. Transfections were performed using a calcium-phosphate precipitation procedure. The cell culture media containing the DNA precipitate was replaced with fresh medium, from one to 24 hours, after transfection.” for “vector.”
# [17] = test system: T66I integrase site-directed mutant; assay: Phenotypic susceptibility assay, integrase T66I mutated resistance test vector; type: cell-based, HIV; settings: {}
# Experimental: as §6
# A resistance test vector containing the threonine to isoleucine mutation at position 66 of the integrase protein (T66I) was constructed and tested using the phenotypic assay described earlier.
# [18] = test system: HIV-1 reverse transcriptase Y188C (Y188C-RTV); assay: Phenotypic susceptibility assay, site directed mutant Y188C-RTV; type: cell-based; settings: >1 loss of susceptibility
# Experimental: as §1, §2, §3
# [19] = >1 loss, <1 increased susceptibility
SMILES,fold change in susceptibility compared to wild type control RTV [1],resistance profile [2],fold change in susceptibility compared to wild type control RTV [3],fold change in susceptibility compared to wild type control RTV [4] [fold],fold change in susceptibility compared to wild type control RTV [5],fold change in susceptibility compared to wild type control RTV [6] [fold],change in susceptibility / resistance [7],fold change in susceptibility compared to wild type control RTV [7] [fold],fold change in susceptibility compared to wild type control RTV [8],fold change in susceptibility compared to wild type control RTV [9],change in susceptibility [10],fold change in susceptibility compared to wild type control RTV [11] [fold],fold change in susceptibility compared to wild type control RTV [12] [fold],change in susceptibility [13],fold change in susceptibility compared to wild type control RTV [13] [fold],fold change in susceptibility compared to wild type control RTV ([14]; >1 loss of susceptibility),"fold change in susceptibility compared to wild type control RTV [14, 19] [fold]",fold change in susceptibility compared to wild type control RTV [15] [fold],increase in susceptibility compared to wild type control RTV [17] [fold],fold change in susceptibility compared to wild type control RTV [18] [fold],further results
CC(C)Nc1cccnc1N1CCN(C(=O)c2cc3cc(NS(C)(=O)=O)ccc3[nH]2)CC1 [delavirdine],9 fold,resistance,50 fold,0.03,100 fold,1.6,reduced susceptibility; also recorded: resistance,50,3 fold,0.8 fold,less susceptible; also recorded: significant reduction,5,3,slightly more susceptible; also recorded: increase; also recorded: slightly increase susceptibility,0.5,1.4 fold,0.5,1.3,8 to 10,3,change in susceptibility [16]: slightly more susceptible; also recorded: increase; also recorded: slightly increase susceptibility; change in susceptibility ([16]; listed as delviridine): increased susceptibility
O=C1Nc2ccc(Cl)cc2[C@@](C#CC2CC2)(C(F)(F)F)O1 [efavirenz],109 fold and 110 fold,–,12 fold,0.48,4 fold,1.4,–,30,8 fold,greater than 250 fold,no effect,1.7,3,–,8,greater than 250 fold,7.6,1.7,8 to 10,20,"fold change in susceptibility compared to wild type control RTV ([2]; Y181C-RTV, >1 loss of susceptibility): 3 fold and 4 fold; fold change in susceptibility compared to wild type control RTV ([16]; G190A-RTV): 8 fold"
Cc1ccnc2c1NC(=O)c1cccnc1N2C1CC1 [nevirapine],greater than 800 fold,resistance,greater than 800 fold,3,greater than 800 fold,1.3,reduced susceptibility; also recorded: resistance,55,greater than 800 fold,greater than 800 fold,no significant change; also recorded: little or no reduction,60,8,markedly less susceptible; also recorded: decrease; also recorded: greatly reduce susceptibility,75,greater than 800 fold,75,3,8 to 10,30,change in susceptibility [16]: markedly less susceptible; also recorded: decrease; also recorded: greatly reduce susceptibility

# Source: patent publication US20050130134A1, “Means and methods for monitoring non-nucleoside reverse transcriptase inhibitor antiretroviral therapy and guiding therapeutic decisions in the treatment HIV-AIDS” (ViroLogic, Inc., priority 2000, published 2005)
